Measurements reported in patent US7550469B2, “Heterocyclic amide derivatives and their use as dopamine D3 receptor ligands” (Aventis Pharmaceuticals Inc., priority 2001, dated 2009).
Read-outs that look alike come from different tables or passages of the source.

Target: T1, cloned human dopamine D3 receptors (Homo sapiens, UniProt P35462)
T1 construct: expressed in transfected cells; membrane homogenate
Assay: [N-Methyl-3H]Spiroperidol binding to cloned human dopamine D3 receptors (Protocol 1)
Source text: [N-Methyl-^3H]Spiroperidol Binding to Cloned Human Dopamine D3 Receptors
This assay measures the in vitro activity of compounds on cloned human dopamine (D3) receptors and predicts the direct dopamine-blocking properties of putative neuropsychiatric agents at human dopamine D3 receptors.
The D3 gene was isolated from a human striatal cDNA library (Stratagene). The gene was sequenced and sub-cloned into the expression vector RC/RSV (Invitrogen). CHO (Chinese Hamster Ovary) cells were stably transfected with 10 μg of the D3/RSV plasmid using the DOTAP method from Boehringer Mannheim and 72 clones that were G418 resistant were isolated. Using mRNA and binding displacement data a single high expressing clone was identified. This clone was then grown in large batches for the purpose of developing a 96 well format assay.
• 1. One plate (10 cm) with approximately 2-3 million D3 cells per plate is incubated with 1 ml of Trypsin-EDTA at room temperature for ˜2 min or until cells have lifted off plates. Four ml of Ham's F12+10% Fetal Bovine Serum+1% Penicillin/Streptomycin+G418 (400 μg/ml) medium are added to resuspend cells and 1 ml of this is added to each large plate (15 cm) containing 19 ml of the-same medium as mentioned above. • 2. The 5 large plates are incubated at 37° C.+5% CO2 for ˜3 days or until the cells are confluent. • 3. After these plates are confluent, they are split into 10 large plates. Medium is aspirated off, 2 ml of Trypsin-EDTA are added to each plate and plates are incubated at RT for 2 min or until cells have lifted off the plate. Eight ml of the F12 medium (same medium as #1 above) are added to each plate (10 ml total) to resuspend the cells and 5 ml are transferred to the 2 new plates containing 15 ml of the F12 media. • 4. The 10 large plates are incubated at 37° C.+5% CO2 for ˜2 days or until the cells are confluent. • 5. The 10 large plates are split into 60 large plates (using Trypsin-EDTA as #3 except 4 ml of F12 medium are added to resuspend cells and 1 ml is aliquoted to 6 new plates containing 19 ml of F12 medium each). • 6. Plates are incubated at […]+5% CO2 for ˜3 days or until cell are confluent. • 7. The 60 large plates are then split into 60 roller bottles (100-150 million cells/bottle). Medium is aspirated off, 2 ml of Trypsin-EDTA are added to each plate and incubated at RT for ˜2 minutes or until cells have lifted off plates. Eight ml of F12 medium are added to each plate to resuspend cells and the entire 10 ml are added to 1 roller bottle containing 90 ml of the F12 medium. • 8. The 60 roller bottles are immediately placed on their sides and transferred to the roller bottle incubator. They are incubated at 37° C.+5% CO2 for ˜3-5 days. Cells are spun at 30-40% motor speed in the Forma incubator. • 9. Medium is poured off and cells are washed 2× in PBS. • 10. Cells are then scraped off in 20 ml of PBS and the bottles are rinsed again with 5 ml of PBS to remove any remaining cells. Cells are stored on ice before membrane preparation. • 11. The yield for 60 D3 roller bottles has varied from ˜260-500 mg. • Note: All tissue culture reagents are from Gibco-BRL. C. Membrane Preparation
The cells are harvested into 250 ml centrifuge tubes with 100 volumes of cold phosphate buffered saline (PBS) and spun down (1200×G for 10 min at 4° C.). The medium is removed and 100 ml PBS are added to each centrifuge tube, cells are resuspend and spun down again. The PBS is removed and the final pellet is homogenized in an appropriate volume of 10% DMSO with a polytron on ice at a medium setting.
1. 0.5M Tris Buffer, pH 7.7 • a) 44.4 g Tris HCl 26.5 g Tris Base q.s. to 1 Liter (0.5 M Tris buffer, pH 7.7 at 37° C.) • b) make a 1:10 dilution in distilled H2O (0.05 M. Tris buffer, pH 7.7) 2. Tris Buffer Containing Physiological Salts • a) Stock buffer • NaCl 7.014 g • KCl 0.372 g • CaCl2 0.222 g • MgCl2 0.204 g • q.s. To 100 ml with 0.5 M. Tris Buffer • b) Dilute 1:10 in distilled H2O […]

[1] = the 14th table, read-out: D3 Ki
[2] = the 15th table, read-out: D3 Ki
[3] = the 13th table, unit inferred, read-out: D3Ki
[4] = the 24th table, read-out: D3 Ki
[5] = the 21st table, read-out: D3 Ki
[6] = the 16th table, read-out: D3 Ki
[7] = the 18th table, read-out: D3 Ki
[8] = the 19th table, read-out: D3 Ki

T1 sequence (P35462 whole entry): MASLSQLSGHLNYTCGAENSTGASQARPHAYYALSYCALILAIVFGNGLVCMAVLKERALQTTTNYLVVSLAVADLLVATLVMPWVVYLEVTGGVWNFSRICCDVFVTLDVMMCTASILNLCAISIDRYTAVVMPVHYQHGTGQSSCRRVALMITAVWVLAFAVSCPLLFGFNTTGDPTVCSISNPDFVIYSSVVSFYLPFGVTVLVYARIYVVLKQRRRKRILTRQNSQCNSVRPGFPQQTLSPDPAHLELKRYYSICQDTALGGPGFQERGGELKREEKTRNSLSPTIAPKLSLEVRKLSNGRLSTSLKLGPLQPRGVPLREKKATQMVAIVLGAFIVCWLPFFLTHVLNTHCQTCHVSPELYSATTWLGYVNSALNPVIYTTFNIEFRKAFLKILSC

Molecule FC(F)(F)c1ccc2c(N3CCN(C[C@@H]4C[C@H]4CNCCc4ccccc4)CC3)csc2c1 [compound 832322] has a Ki (the 23rd table, read-out: D3 Ki) of 227 nM.
O=C(N[C@@H](CO)CCCN1CCN(c2csc3cc(C(F)(F)F)ccc23)CC1)c1ccc(-c2ccccc2)cc1 [compound 815670] showed a Ki (read-out: D3K1) of 192 nM and a Ki [1] of 192 nM.
Cc1ccccc1C(=O)NCCCCN1C2CCC1CC(c1noc3ccccc13)C2 (stereo not shown) [compound 816531] showed a Ki [2] of 299 nM.
O=C(NC/C=C\CN1CCN(c2csc3cc(C(F)(F)F)ccc23)CC1)c1cc(F)cc(F)c1 [compound 826338] was tested, and the Ki (read-out: D3K1) was 93 nM.
With O=C(NCCCCN1CCC(c2noc3ccsc23)CC1)c1cc2ccccc2s1 [compound 815147] the Ki [3] was 371 nM.
Work on CCOc1ccc(C(=O)NCCCCN2CCN(c3c(Cl)sc4cc(C(F)(F)F)ccc34)CC2)cc1 [compound 815560] yielded a Ki (read-out: D3K1) of 22 nM.
With O=C(NCCCCN1CCCN(c2csc3cc(F)ccc23)CC1)c1cc(Cl)ccc1[N+](=O)[O-] [S982540] the Ki [3] was 1.2 nM.
In the case of CCCCS(=O)(=O)NCC1CC1CN1CCN(c2csc3cc(C(F)(F)F)ccc23)CC1 (stereo not shown) [compound 831636], the Ki [4] is reported as 186 nM.
C[C@@H]1CN(c2csc3cc(C(F)(F)F)ccc23)C[C@H](C)N1CCCCNC(=O)c1cccc(F)c1 [compound 827044] gave a Ki [5] of 186 nM.
O=C(NCCCCN1CCN(c2c(Cl)sc3cc(F)ccc23)CC1)C1CCCC1 [compound 815071] was tested, and the Ki (read-out: D3K1) was 7.2 nM.
Molecule C[C@@H]1CN(c2csc3cc(C(F)(F)F)ccc23)C[C@H](C)N1CCCCNC(=O)c1ccc2[nH]ccc2c1 [compound 826954] has a Ki [5] of 39.4 nM.
Work on O=C(NCCCCCN1CCN(c2csc3cc(F)ccc23)CC1)c1cccc(Cl)c1 [compound 826775] yielded a Ki [1] of 6.24 nM.
Work on Nc1ccc(C(=O)NCCCCN2CCCN(c3csc4cc(F)ccc34)CC2)cc1 [compound 817258] yielded a Ki (Table 2, read-out: D3K1) of 3.13 nM and a Ki [6] of 3.13 nM.
O=C(NCCCCN1CCCN(c2csc3cc(F)ccc23)CC1)c1cccs1 [compound 822149] gave a Ki [3] of 2.7 nM.
For O=C(NCCCCN1CCCN(c2csc3cc(F)ccc23)CC1)c1ccc(Cl)cc1 [compound 822150], the Ki [3] was 6.3 nM.
Work on CC1=C(C(=O)NCc2sccc2CN2CCN(c3csc4cc(F)ccc34)CC2)Cc2ccccc21 [compound 826330] yielded a Ki [7] of 16 nM.
In the case of O=C(NCCCCN1C2CCC1CC(c1noc3cc(F)ccc13)C2)c1ccc(F)cc1 (stereo not shown) [compound 816333], the Ki [2] is reported as 474 nM.
Cc1ccc(C(=O)N[C@@H](CO)CCCN2CCN(c3csc4cc(C(F)(F)F)ccc34)CC2)cc1 [compound 815671] gave a Ki (read-out: D3K1) of 309 nM and a Ki [1] of 309 nM.
Cn1c(C(=O)NCCCCCN2CCN(c3csc4cc(F)ccc34)CC2)cc2ccccc21 [compound 826786] gave a Ki [1] of 1.09 nM.
COc1cc(C)c2cc(C(=O)NCCCCN3CCCN(c4csc5cc(F)ccc45)CC3)oc2c1OC [compound 827131] was tested, and the Ki (Table 2, read-out: D3K1) was 4.18 nM and the Ki [6] was 4.18 nM.
With CC(C)(C)c1cc(C(C)(C)C)c2oc(C(=O)NCCCCN3CCCN(c4csc5cc(F)ccc45)CC3)cc2c1 [compound 827132] the Ki (Table 2, read-out: D3K1) was 129 nM and the Ki [6] was 129 nM.
Work on O=C(NCCCCN1CCCN(c2csc3cc(C(F)(F)F)ccc23)CC1)c1ccncc1 [S980645] yielded a Ki [3] of 44 nM.
For O=C(NCCCCN1CCCN(c2csc3cc(C(F)(F)F)ccc23)CC1)c1ccc2nonc2c1 [S980664], the Ki [3] was 6.1 nM.
Work on NS(=O)(=O)c1cc(C(=O)NCCCCN2CCCN(c3csc4cc(F)ccc34)CC2)c(O)c2ccccc12 [compound 817265] yielded a Ki (Table 2, read-out: D3K1) of 46 nM and a Ki [6] of 46 nM.
For O=C(NCc1ccoc1CN1CCN(c2csc3cc(F)ccc23)CC1)c1cccc(C(F)(F)F)c1 [compound 825841], the Ki (the 20th table, read-out: D3 Ki) was 146 nM.
With O=C(Nc1cccc(CN2CCN(c3csc4cc(F)ccc34)CC2)c1)c1ccsc1 [compound 825654] the Ki [8] was 245 nM.
O=C(NCCCCN1CCN(c2c(Cl)sc3cc(F)ccc23)CC1)c1ccccc1C(F)(F)F [compound 815065] gave a Ki (read-out: D3K1) of 43.8 nM.
With O=C(NCCCCCCN1CCN(c2csc3cc(C(F)(F)F)ccc23)CC1)c1cccc(C(F)(F)F)c1 [compound 826752] the Ki (read-out: D3K1) was 14 nM and the Ki [1] was 14 nM.
O=C(NCC(CO)CCN1CCN(c2csc3cc(C(F)(F)F)ccc23)CC1)c1ccoc1 (stereo not shown) [818925ES] showed a Ki (Table 2, read-out: D3K1) of 293 nM.
Work on O=C(N[C@@H](CO)CCCN1CCN(c2csc3cc(C(F)(F)F)ccc23)CC1)c1cc2ccccc2[nH]1 [compound 815674] yielded a Ki (Table 2, read-out: D3K1) of 314 nM, a Ki (read-out: D3K1) of 314 nM and a Ki [1] of 314 nM.
With Cn1c(C(=O)NCCCCN2CCCN(c3csc4cc(F)ccc34)CC2)cc2ccccc21 [822228G] the Ki [3] was 1.78 nM.
With O=C(NCCCCN1CCN(c2c(Cl)sc3cc(C(F)(F)F)ccc23)CC1)c1ccccc1Br [compound 815578] the Ki (read-out: D3K1) was 117 nM.
Molecule Cc1ccc(C(=O)NCCCCN2CCN(c3nn(C(=O)c4ccc(C)cc4)c4ccsc34)CC2)cc1 [compound 825147] has a Ki (the 22nd table, read-out: D3 Ki) of 62.7 nM.
CC(=O)Nc1ccc(C(=O)N[C@@H](CO)CCCN2CCN(c3csc4cc(C(F)(F)F)ccc34)CC2)cc1 [compound 815667] was tested, and the Ki (read-out: D3K1) was 203 nM and the Ki [1] was 203 nM.
For O=C(NCC(CO)CCN1CCN(c2csc3cc(C(F)(F)F)ccc23)CC1)c1cn[nH]c1 (stereo not shown) [818928ES], the Ki (Table 2, read-out: D3K1) was 158 nM.
COc1cc(OC)cc(C(=O)NCCCCN2[C@H](C)CN(c3csc4cc(C(F)(F)F)ccc34)C[C@@H]2C)c1 [compound 827039] showed a Ki [5] of 378 nM.
O=C(NC(CO)CCCN1CCN(c2csc3cc(C(F)(F)F)ccc23)CC1)c1ccc(Cl)cc1 (stereo not shown) [compound 815690] showed a Ki (Table 2, read-out: D3K1) of 245 nM, a Ki (read-out: D3K1) of 245 nM and a Ki [1] of 245 nM.
In the case of O=C(NCCCCN1CCN(c2c(Cl)sc3cc(C(F)(F)F)ccc23)CC1)c1ccccc1C(F)(F)F [compound 815573], the Ki (read-out: D3K1) is reported as 35 nM.
In the case of O=C(NCCCCCN1CCN(c2csc3cc(C(F)(F)F)ccc23)CC1)c1cc2ccccc2[nH]1 [compound 826794], the Ki (read-out: D3K1) is reported as 11.1 nM and the Ki [1] is reported as 11.1 nM.
Cc1ccccc1C(=O)NCCCCCN1CCN(c2csc3cc(F)ccc23)CC1 [compound 826781] showed a Ki [1] of 9.94 nM.
COc1ccc(/C=C/C(=O)NC/C=C\CN2CCN(c3csc4cc(C(F)(F)F)ccc34)CC2)cc1 [compound 827735] showed a Ki (Table 2, read-out: D3K1) of 24.4 nM.
With Cn1c(C(=O)NCCCCCN2CCCN(c3csc4cc(F)ccc34)CC2)cc2ccccc21 [S984506] the Ki [3] was 33.4 nM.
O=C(NCCCCN1CCN(c2c(Cl)sc3cc(F)ccc23)CC1)c1ccc(-c2ccccc2)cc1 [compound 815059] showed a Ki (read-out: D3K1) of 13.8 nM.
In the case of O=C(NCc1sccc1CN1CCN(c2csc3cc(F)ccc23)CC1)c1cnc2ccccc2n1 [compound 826310], the Ki [7] is reported as 203 nM.
O=C(Cc1ccccc1)NCC1CCC1CN1CCN(c2csc3cc(C(F)(F)F)ccc23)CC1 (stereo not shown) [compound 826293] was tested, and the Ki (read-out: D3K1) was 240 nM.
Work on O=C(Nc1ccc(CN2CCN(c3csc4cc(F)ccc34)CC2)cc1)c1ccc(-c2ccccc2)cc1 [compound 822210] yielded a Ki [8] of 39.5 nM.
In the case of O=C(N[C@@H](CO)CCCN1CCN(c2csc3cc(C(F)(F)F)ccc23)CC1)c1ccc(Br)cc1 [compound 815679], the Ki (Table 2, read-out: D3K1) is reported as 129 nM, the Ki (read-out: D3K1) is reported as 129 nM and the Ki [1] is reported as 129 nM.
O=S(=O)(NCC1CC1CN1CCN(c2csc3cc(C(F)(F)F)ccc23)CC1)c1ccc(OC(F)(F)F)cc1 (stereo not shown) [compound 831592] showed a Ki [4] of 195 nM.
O=C(NCCCCN1CCCN(c2csc3cc(C(F)(F)F)ccc23)CC1)c1cccc2ccccc12 [S980631] was tested, and the Ki [3] was 100 nM.
